Broadly, the IC50 is the concentration needed to halve the response being measured.

For 24 compounds, IC50 results are on record in patent publication US20230364070A1, “PYRROLO[3,2-C]PYRIDIN-4-ONE DERIVATIVES USEFUL IN THE TREATMENT OF CANCER” (Scorpion Therapeutics, Inc., priority 2020, published 2023).

Common to all, as to format: cell-based
Assay [1] deals with T1, Ba/F3 cells with EGFR exon 20 ASV Ins V769_D770 (Homo sapiens, UniProt P00533, INS769ASV).
T1 construct: expressed in transfected cells; host or cells: Ba/F3 (murine pro-B cells), retroviral transduction, puromycin selection, IL3-independent pool
Description: EGFR activity: Ba/F3 cell viability (CellTiter-Glo, 72 h), EGFR exon 20 ASV insertion. To be noted: EGFR exon 20 ASV Ins V769_D770, cell viability, read-out: BaF3 ASV IC50. A general note: In ATP-based viability assays light output follows the ATP content of the culture.

A further assay has as its target T2, pEGFR in CUTO14 cells (Homo sapiens, UniProt P00533, DUP767-769).
T2 construct: endogenous in cells; host or cells: CUTO14 cells
Description: Inhibitor activity on EGFR phosphorylation (pEGFR AlphaLISA, 2 h), CUTO14 cells. The protocol:
CUTO14 cells were obtained from Dr. Robert C. Doebele at the University of Colorado.
Shake 350 rpm for 1 hr in the dark • 3.4 Prepare donor mix under low light conditions prior to use. Dispense 5 μL of donor mix to all the wells. Mix well on the shaker, seal and wrap in aluminum foil and incubate 1.5 hrs at room temperature in the dark • 3.5 Transfer 18.5 μL mixture to OptiPlate 384, and read using an Envision.

In another assay the target is T3, Ba/F3 cells with EGFR WT (Homo sapiens, UniProt P00533).
T3 construct: expressed in transfected cells; host or cells: Ba/F3 (murine pro-B cells), retroviral transduction, puromycin selection, maintained with EGF
Put plainly: EGFR activity: Ba/F3 cell viability (CellTiter-Glo, 72 h), EGFR WT. To be noted: read-out: BaF3 WT IC50.

Assay [2] deals with T4, Ba/F3 cells with EGFR exon 20 NPG Ins D770_N771 (Homo sapiens, UniProt P00533, INS770NPG).
T4 construct: expressed in transfected cells; host or cells: Ba/F3 (murine pro-B cells), retroviral transduction, puromycin selection, IL3-independent pool
Put plainly: EGFR activity: Ba/F3 cell viability (CellTiter-Glo, 72 h), EGFR exon 20 NPG insertion. To be noted: EGFR exon 20 NPG Ins D770_N771, cell viability, read-out: BaF3 NPG IC50.

SMILES strings stand for the structures.

T2 sequence (P00533 with tags, fused parts or gaps DUP767-769): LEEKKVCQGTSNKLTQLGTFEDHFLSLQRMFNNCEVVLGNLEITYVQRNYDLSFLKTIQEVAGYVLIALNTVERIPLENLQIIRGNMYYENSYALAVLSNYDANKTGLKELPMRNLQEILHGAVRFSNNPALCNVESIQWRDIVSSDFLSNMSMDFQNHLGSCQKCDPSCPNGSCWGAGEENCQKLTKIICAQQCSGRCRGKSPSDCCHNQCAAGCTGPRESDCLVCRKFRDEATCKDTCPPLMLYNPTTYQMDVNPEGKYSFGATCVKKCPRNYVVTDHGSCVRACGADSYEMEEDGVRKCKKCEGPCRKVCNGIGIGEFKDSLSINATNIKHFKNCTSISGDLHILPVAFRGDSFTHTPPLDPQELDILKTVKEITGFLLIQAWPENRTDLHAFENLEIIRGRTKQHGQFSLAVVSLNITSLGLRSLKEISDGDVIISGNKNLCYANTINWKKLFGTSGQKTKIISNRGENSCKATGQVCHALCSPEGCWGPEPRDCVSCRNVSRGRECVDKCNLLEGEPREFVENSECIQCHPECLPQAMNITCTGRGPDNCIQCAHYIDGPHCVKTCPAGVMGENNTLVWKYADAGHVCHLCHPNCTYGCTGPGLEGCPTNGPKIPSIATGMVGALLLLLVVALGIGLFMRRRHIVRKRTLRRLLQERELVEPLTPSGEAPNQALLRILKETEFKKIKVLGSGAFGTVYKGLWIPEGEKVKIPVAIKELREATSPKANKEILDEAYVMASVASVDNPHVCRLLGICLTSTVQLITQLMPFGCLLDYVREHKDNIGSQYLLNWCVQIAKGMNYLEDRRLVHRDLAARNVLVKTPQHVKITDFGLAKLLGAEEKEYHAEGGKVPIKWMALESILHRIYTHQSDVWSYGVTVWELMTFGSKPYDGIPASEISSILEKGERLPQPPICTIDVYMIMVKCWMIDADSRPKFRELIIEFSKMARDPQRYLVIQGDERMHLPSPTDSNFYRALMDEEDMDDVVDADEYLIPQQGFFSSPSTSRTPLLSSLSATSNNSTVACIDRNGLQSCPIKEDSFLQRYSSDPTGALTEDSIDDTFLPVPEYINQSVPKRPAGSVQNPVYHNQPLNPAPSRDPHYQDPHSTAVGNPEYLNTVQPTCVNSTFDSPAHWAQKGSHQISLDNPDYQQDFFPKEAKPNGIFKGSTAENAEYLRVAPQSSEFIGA
T1 sequence (P00533 with tags, fused parts or gaps INS769ASV): as the sequence (P00533 with tags, fused parts or gaps DUP767-769) above
T3 sequence (P00533 25-1210): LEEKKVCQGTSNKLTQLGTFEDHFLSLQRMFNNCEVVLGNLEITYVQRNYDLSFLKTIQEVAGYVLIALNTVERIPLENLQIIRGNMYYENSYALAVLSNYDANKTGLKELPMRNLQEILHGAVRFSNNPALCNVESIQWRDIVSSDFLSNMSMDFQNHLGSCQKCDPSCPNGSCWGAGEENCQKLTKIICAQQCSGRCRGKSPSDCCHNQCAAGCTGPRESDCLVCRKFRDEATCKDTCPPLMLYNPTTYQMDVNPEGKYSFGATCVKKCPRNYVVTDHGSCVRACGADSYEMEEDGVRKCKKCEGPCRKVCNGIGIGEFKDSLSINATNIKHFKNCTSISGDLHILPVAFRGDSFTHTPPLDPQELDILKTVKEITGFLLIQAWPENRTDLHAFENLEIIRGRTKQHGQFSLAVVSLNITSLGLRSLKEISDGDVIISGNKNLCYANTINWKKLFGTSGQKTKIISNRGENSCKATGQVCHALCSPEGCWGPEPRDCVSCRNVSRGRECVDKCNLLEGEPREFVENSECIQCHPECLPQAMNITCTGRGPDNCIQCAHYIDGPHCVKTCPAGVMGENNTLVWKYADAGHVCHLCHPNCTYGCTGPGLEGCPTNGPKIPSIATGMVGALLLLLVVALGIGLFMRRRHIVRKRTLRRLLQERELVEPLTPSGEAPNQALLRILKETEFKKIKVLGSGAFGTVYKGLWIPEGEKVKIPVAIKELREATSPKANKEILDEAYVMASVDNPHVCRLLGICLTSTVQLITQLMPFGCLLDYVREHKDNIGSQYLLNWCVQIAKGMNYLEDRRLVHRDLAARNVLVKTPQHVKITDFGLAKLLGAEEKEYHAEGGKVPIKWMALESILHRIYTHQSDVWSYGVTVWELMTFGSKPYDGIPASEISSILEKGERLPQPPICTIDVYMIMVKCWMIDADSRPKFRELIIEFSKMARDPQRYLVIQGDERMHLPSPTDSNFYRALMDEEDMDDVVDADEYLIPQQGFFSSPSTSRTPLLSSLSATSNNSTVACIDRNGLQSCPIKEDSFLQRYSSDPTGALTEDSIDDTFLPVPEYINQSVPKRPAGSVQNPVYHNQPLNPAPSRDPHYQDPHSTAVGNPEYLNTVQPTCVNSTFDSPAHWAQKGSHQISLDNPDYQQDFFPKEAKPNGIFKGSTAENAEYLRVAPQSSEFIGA
T4 sequence (P00533 with tags, fused parts or gaps INS770NPG): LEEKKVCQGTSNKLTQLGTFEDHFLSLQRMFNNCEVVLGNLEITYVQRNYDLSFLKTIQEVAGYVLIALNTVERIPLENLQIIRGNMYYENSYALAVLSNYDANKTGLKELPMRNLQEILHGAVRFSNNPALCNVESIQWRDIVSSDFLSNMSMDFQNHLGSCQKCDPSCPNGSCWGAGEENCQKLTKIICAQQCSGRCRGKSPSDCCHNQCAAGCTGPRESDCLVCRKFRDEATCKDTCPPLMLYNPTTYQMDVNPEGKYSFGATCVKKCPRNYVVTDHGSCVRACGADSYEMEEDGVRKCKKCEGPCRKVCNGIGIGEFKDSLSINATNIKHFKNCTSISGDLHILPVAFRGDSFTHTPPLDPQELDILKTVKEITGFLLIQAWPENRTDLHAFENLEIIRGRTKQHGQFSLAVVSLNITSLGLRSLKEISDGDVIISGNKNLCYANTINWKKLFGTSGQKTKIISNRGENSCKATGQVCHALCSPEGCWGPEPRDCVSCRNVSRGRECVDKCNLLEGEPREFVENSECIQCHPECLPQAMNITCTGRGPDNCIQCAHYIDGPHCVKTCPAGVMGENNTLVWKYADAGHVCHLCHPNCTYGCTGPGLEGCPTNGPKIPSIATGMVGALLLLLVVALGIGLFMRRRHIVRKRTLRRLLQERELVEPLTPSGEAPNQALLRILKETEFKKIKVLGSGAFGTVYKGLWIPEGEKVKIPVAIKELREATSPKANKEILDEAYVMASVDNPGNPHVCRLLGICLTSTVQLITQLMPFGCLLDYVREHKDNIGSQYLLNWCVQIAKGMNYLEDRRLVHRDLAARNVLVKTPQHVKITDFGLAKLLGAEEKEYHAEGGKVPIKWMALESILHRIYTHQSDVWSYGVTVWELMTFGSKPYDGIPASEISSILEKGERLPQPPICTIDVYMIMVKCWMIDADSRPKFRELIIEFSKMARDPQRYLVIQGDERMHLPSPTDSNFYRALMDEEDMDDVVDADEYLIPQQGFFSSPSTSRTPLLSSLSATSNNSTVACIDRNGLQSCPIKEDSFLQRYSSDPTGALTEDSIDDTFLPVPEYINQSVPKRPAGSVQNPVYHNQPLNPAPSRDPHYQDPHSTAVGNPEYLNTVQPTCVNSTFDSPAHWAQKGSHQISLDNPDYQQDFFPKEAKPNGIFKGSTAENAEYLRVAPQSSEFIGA

Turning to `COc1c(F)cccc1Nc1c(-c2ccncc2OC[C@@]2(C)CCN2C(=O)/C=C/CN(C)C)[nH]c2c1C(=O)NCC2` [compound 422], the IC50 in assay [1] is less than 100 nM; against pEGFR in CUTO14 cells it was less than 100 nM; at Ba/F3 cells with EGFR WT it was 100 to 1000 nM; in assay [2], less than 100 nM.

Take `COc1c(Cl)cccc1Nc1c(-c2ccncc2C#C[C@@]2(C)CCCN2C(=O)C#CCN(C)C)[nH]c2c1C(=O)NCC2` [compound 433]: the IC50 is less than 100 nM in assay [1], less than 100 nM on pEGFR in CUTO14 cells, 100 to 1000 nM at Ba/F3 cells with EGFR WT and less than 100 nM in assay [2].

For the compound `COc1c(F)cccc1Nc1c(-c2ccncc2C#C[C@]2(NC(=O)/C=C/CN(C)C)CCOC2)[nH]c2c1C(=O)NCC2` [compound 418], the IC50 in assay [1] was 100 to 1000 nM; at pEGFR in CUTO14 cells, 100 to 1000 nM; at Ba/F3 cells with EGFR WT, greater than 1000 nM; in assay [2] it was 100 to 1000 nM.

In the case of `C=CC(=O)N1[C@@H](C#Cc2cnccc2-c2[nH]c3c(c2Nc2cccc(F)c2OC)C(=O)NCC3)C[C@@H]2C[C@@H]21` [compound 301], the IC50 is less than 100 nM in assay [1], less than 100 nM at pEGFR in CUTO14 cells, 100 to 1000 nM at Ba/F3 cells with EGFR WT and less than 100 nM in assay [2].

`C=CC(=O)N1[C@H]2CC[C@H](C2)[C@@H]1C#Cc1cnccc1-c1[nH]c2c(c1Nc1cccc(Cl)c1OC)C(=O)NCC2` [compound 236, 3-[(3-chloro-2-methoxyphenyl)amino]-2-(3-{2-[(1S,3R,4R)-2-(prop-2-enoyl)-2-azabicyclo[2.2.1]heptan-3-yl]ethynyl}pyridin-4-yl)-1H,5H,6H,7H-pyrrolo[3,2-c]pyridin-4-one]: the IC50 in assay [1] was less than 100 nM; against pEGFR in CUTO14 cells, less than 100 nM; on Ba/F3 cells with EGFR WT, 100 to 1000 nM; in assay [2], less than 100 nM.

For `COc1c(F)cccc1Nc1c(-c2ccncc2C#C[C@@]2(C)CCCN2C(=O)C#CCN(C)C)[nH]c2c1C(=O)NCC2` [compound 434], the IC50 in assay [1] was less than 100 nM; against pEGFR in CUTO14 cells, less than 100 nM; at Ba/F3 cells with EGFR WT it was 100 to 1000 nM; in assay [2] it was less than 100 nM.

Take `CC#CC(=O)N1CC[C@@]1(C)COc1cnccc1-c1[nH]c2c(c1Nc1cccc(Cl)c1OC)C(=O)NCC2` [compound 358]: the IC50 was 100 to 1000 nM in assay [1], 100 to 1000 nM against pEGFR in CUTO14 cells, greater than 1000 nM on Ba/F3 cells with EGFR WT and 100 to 1000 nM in assay [2].

Turning to `CC#CC(=O)N1CC[C@@H]1COc1cnccc1-c1[nH]c2c(c1Nc1cccc(F)c1Cl)C(=O)NCC2` [compound 406], the IC50 (in assay [1]; against pEGFR in CUTO14 cells; at Ba/F3 cells with EGFR WT; in assay [2]) was less than 100 nM each time.

`C=C(F)C(=O)N1CC[C@@H]1COc1cnccc1-c1[nH]c2c(c1Nc1cccc(F)c1C)C(=O)NCC2` [compound 567]: the IC50 in assay [1] is 100 to 1000 nM; against pEGFR in CUTO14 cells, less than 100 nM; at Ba/F3 cells with EGFR WT it was 100 to 1000 nM; in assay [2], less than 100 nM.

As for `C=CC(=O)NC1(C#Cc2cnccc2-c2[nH]c3c(c2Nc2cccc(Cl)c2OC)C(=O)NCC3)COC1` [compound 264, N-{3-[2-(4-{3-[(3-chloro-2-methoxyphenyl)amino]-4-oxo-1H,5H,6H,7H-pyrrolo[3,2-c]pyridin-2-yl}pyridin-3-yl)ethynyl]oxetan-3-yl}prop-2-enamide], the IC50 in assay [1] was less than 100 nM; against pEGFR in CUTO14 cells it was less than 100 nM; at Ba/F3 cells with EGFR WT it was 100 to 1000 nM; in assay [2], less than 100 nM.

Consider `C=CC(=O)N1CCC[C@]1(C)C#Cc1cnccc1-c1[nH]c2c(c1Nc1cccc(F)c1CC)C(=O)NCC2` [compound 305], for which the IC50 in assay [1] was less than 100 nM; at pEGFR in CUTO14 cells it was less than 100 nM; at Ba/F3 cells with EGFR WT, 100 to 1000 nM; in assay [2], less than 100 nM.

On to `CC#CC(=O)N1CC[C@@H]1COc1cnccc1-c1[nH]c2c(c1Nc1cccc(F)c1F)C(=O)NCC2` [compound 350], for which the IC50 in assay [1] was less than 100 nM; against pEGFR in CUTO14 cells it was less than 100 nM; at Ba/F3 cells with EGFR WT, 100 to 1000 nM; in assay [2], less than 100 nM.

On to `COc1c(F)cccc1Nc1c(-c2ccncc2C#C[C@@]2(C)CCCN2C(=O)/C=C/CN2CCOCC2)[nH]c2c1C(=O)NCC2` [compound 442], for which the IC50 in assay [1] was 100 to 1000 nM; at pEGFR in CUTO14 cells, 100 to 1000 nM; on Ba/F3 cells with EGFR WT, greater than 1000 nM; in assay [2], 100 to 1000 nM.

As to `COc1c(Cl)cc(F)cc1Nc1c(-c2ccncc2C#C[C@@]2(C)CCCN2C(=O)/C=C/CN(C)C)[nH]c2c1C(=O)NCC2` [compound 435], the IC50 in assay [1] is less than 100 nM; at pEGFR in CUTO14 cells, less than 100 nM; at Ba/F3 cells with EGFR WT it was 100 to 1000 nM; in assay [2], less than 100 nM.

For `CCc1c(F)cccc1Nc1c(-c2ccncc2OC[C@]2(C)CCN2C(=O)/C=C/CN(C)C)[nH]c2c1C(=O)NCC2` [compound 427], the IC50 is less than 100 nM in assay [1], less than 100 nM against pEGFR in CUTO14 cells, 100 to 1000 nM at Ba/F3 cells with EGFR WT and less than 100 nM in assay [2].

For the compound `COc1c(F)cccc1Nc1c(-c2ccncc2C#CC(C)(C)NC(=O)/C=C/CN[C@H]2CCOC2)[nH]c2c1C(=O)NCC2` [compound 395], the IC50 was 100 to 1000 nM in assay [1], 100 to 1000 nM on pEGFR in CUTO14 cells, greater than 1000 nM at Ba/F3 cells with EGFR WT and 100 to 1000 nM in assay [2].

For `COc1c(Cl)cccc1Nc1c(-c2ccncc2C#C[C@]2(NC(=O)/C=C/CN(C)C)CCOC2)[nH]c2c1C(=O)NCC2` [compound 421], the IC50 in assay [1] was less than 100 nM; at pEGFR in CUTO14 cells, less than 100 nM; on Ba/F3 cells with EGFR WT, greater than 1000 nM; in assay [2] it was less than 100 nM.

Take `COc1c(Cl)cccc1Nc1c(-c2ccncc2C#C[C@H]2CCN2C(=O)/C=C/CN(C)C)[nH]c2c1C(=O)NCC2` [compound 456]: the 50% inhibitory concentration (IC50) was less than 100 nM in assay [1], less than 100 nM at pEGFR in CUTO14 cells, 100 to 1000 nM on Ba/F3 cells with EGFR WT and less than 100 nM in assay [2].

Consider `C=C(F)C(=O)N1CC[C@@H]1COc1cnccc1-c1[nH]c2c(c1Nc1cc(F)cc(F)c1OC)C(=O)NCC2` [compound 365], for which the IC50 (in assay [1]; against pEGFR in CUTO14 cells; on Ba/F3 cells with EGFR WT; in assay [2]) was 100 to 1000 nM throughout.

For the compound `Cc1c(F)cccc1Nc1c(-c2ccncc2C#CC23CC(CN2C(=O)/C=C/CN(C)C)C3)[nH]c2c1C(=O)NCC2` [compound 451], the IC50 is less than 100 nM in assay [1], less than 100 nM against pEGFR in CUTO14 cells, 100 to 1000 nM on Ba/F3 cells with EGFR WT and less than 100 nM in assay [2].

For the compound `C=CC(=O)N1CCN(C)C[C@H]1COc1cnccc1-c1[nH]c2c(c1Nc1cccc(Cl)c1OC)C(=O)NCC2` [compound 568], the IC50 is less than 100 nM in assay [1], less than 100 nM on pEGFR in CUTO14 cells, 100 to 1000 nM at Ba/F3 cells with EGFR WT and less than 100 nM in assay [2].

Take `C=CC(=O)NC1(C#Cc2cnccc2-c2[nH]c3c(c2Nc2cccc(Cl)c2OC)C(=O)NCC3)CCN(C)CC1` [compound 411]: the IC50 in assay [1] is 100 to 1000 nM; against pEGFR in CUTO14 cells, 100 to 1000 nM; at Ba/F3 cells with EGFR WT, greater than 1000 nM; in assay [2] it was 100 to 1000 nM.

Regarding `COc1c(F)cccc1Nc1c(-c2ccncc2C#CC(C)(C)NC(=O)/C=C/CN2CC(F)C2)[nH]c2c1C(=O)NCC2` [compound 463], the IC50 is 100 to 1000 nM in assay [1], less than 100 nM on pEGFR in CUTO14 cells, greater than 1000 nM at Ba/F3 cells with EGFR WT and less than 100 nM in assay [2].

For `COc1c(F)cccc1Nc1c(-c2ccncc2C#CC23CC(CN2C(=O)/C=C/CN(C)C)C3)[nH]c2c1C(=O)NCC2` [compound 437], the IC50 in assay [1] is less than 100 nM; against pEGFR in CUTO14 cells, less than 100 nM; on Ba/F3 cells with EGFR WT, 100 to 1000 nM; in assay [2] it was less than 100 nM.
